This is an account of results in US6326363A, “Methylenebisphosphonic acid derivatives” (Leiras Oy, priority 1997, dated 2001).

Data set [1] can be described thus: Distribution coefficient octanol/buffer (log P). Type of data set: physicochemical. The following applies: 1-octanol/buffer. Here is the method:
The fat-solubility of the compounds of the test was studied by determining the distribution coefficients (P) of the compounds at pH 7.4 and 2.0. The analysis were carried out in a mixture of octanol and buffer.
When the octanol/buffer method of analysis was used, 1-octanol and the phosphate buffer used (50 mM, pH 7.40, μ=0.15) were saturated with each other by stirring a mixture of these overnight. Phases were separated and a prodrug standard solution with the desired concentration was made in the buffer phase. Appropriate volumes of 1-octanol and the standard solution of phosphate buffer were mixed and the mixture was shaken vigorously for 60 min. After shaking the phases were separated and the concentration of the compound to be studied was analysed from the buffer phase before and after distribution according to the above described HPLC method. Distribution coefficient P was calculated from the following formula: [formula]
C1 =concentration of the compound to be studied before distribution
Ca =concentration of the compound to be studied after distribution
Va =volume of the buffer phase
Vo =volume of the octanol phase

Data set [2] in a line: Enzymatic hydrolysis of prodrug molecules in 80% plasma at pH 7.40 and 37° C. Type of data set: in vitro ADME. The following applies: pH 7.4, 37° C.; for metabolised at 1 min: 1 minute, mean ± SE, n = 3, read-out: clodronate released in the first sample (1 minute). How it is done: The enzyme hydrolysis rate of prodrug molecules was determined in a plasma/buffer mixture (80%-20%) at pH 7.40 and at 37° C.
The compound to be tested was dissolved in the buffer part and, after dissolution, plasma with a temperature of 37° C. was added. The solution was stirred with a magnetic stirrer and a sample of 0.25 ml was taken from the mixture at intervals of 1-360 min (depending on the molecule to be tested), to which sample 0.25 ml methanol (denatures proteins) was added. The sample was centrifuged, the clear supernatant was evaporated to dryness, the residue was dissolved in the eluent of the HPLC method, and the remaining prodrug concentration and the amount of the clodronate formed were analysed with HPLC. From the concentrations obtained a first-order graph was drawn (the remaining prodrug amount as a function of time), wherefrom a dissociation constant and half-life (T1/2) were determined.

Data set [3] can be described thus: Chemical hydrolysis of prodrug molecules in phosphate buffer at 37° C. Type of data set: physicochemical. Particulars: phosphate buffer 50 mM; for half-life: 50 mm phosphate buffer. How it is done: Chemical hydrolysis of prodrug molecules was analysed in phosphate buffer (50 mM, μ=0.15) at pH 2.0 and 7.4 and at 37° C.
The compound to be studied was dissolved in 10.0 ml of phosphate buffer. The solution was stirred for 24-1000 h in a water bath with a magnetic stirrer, and samples were taken at regular intervals and analysed with HPLC. From the results a graph of pseudo I order was drawn, where the amount of the remaining compound was shown as a function of time. From the slope (kk) of the linear graph so obtained, a dissociation constant k (k=2.303×-kk) was calculated, wherefrom the half-life T1/2 (T1/2 =0.693/k) of the prodrug molecule under the circumstances in question was calculated.

Data set [4] is described as follows: Water-solubility in phosphate buffer (50 mM, pH 7.4), HPLC. Type of data set: physicochemical. The following applies: for solubility at 2 h: 50 mm phosphate buffer, aqueous buffer. How it is done:
Clodronate and the prodrug molecules of clodronate were analysed with reverse phase/ion pair HPLC method (an isocratic program for clodronate; a gradient program for the simultaneous analysis of clodronate and a prodrug molecule), where detection of compounds was based on the measurement of light scattering caused by unevaporated compounds.
Equipment: Merck LaChrom HPLC (Merck Hitachi Ltd., Japan) Kromasil 100 RP-C8 (250×4.6 i.d., 5 μm) (Higgins Analytical Inc., USA)
Isocratic programe: methanol/ammoniumacetate buffer (3:97, pH 4.6), which contained 2.25% butylamine as ion pair reagent, flow 1.2 ml/min.
Gradient program: methanol (3%→40-60% during 1 min-6 min)/ammoniumacetate (pH 4.6), which contained 2.25% butylamine as ion pair reagent, flow 1.2 ml/min.
Detector: Sedex 55 light scattering detector (Sedere, France)
Settings: temperature of detector 70° C., pressure of evaporating gas (filtered air) 2.2 bar.
Water-solubilities of prodrug molecules were determined in phosphate buffer (50 mM, pH 7.4) at room temperature.
An excess of the compound to be tested was dissolved in about 5 ml of phosphate buffer. The suspension was stirred for 2 hours, the suspension was filtered, and the prodrug concentration of the filtrate was determined with HPLC. Water-solubility of clodronate was determined with the same method.

The nature of data set [5]: Absorption and hydrolysis in vivo, oral bioavailability in fasted rats. The following applies: rat, 100 umol/kg, urine 72 hours, compared with intravenous, parent drug analyzed. How it is done: Absorption and hydrolysis of the compounds in vivo was studied in fasted rats. Absorption was determined from the total amount excreted into urine during 72 hours after administration. For the determination of oral bioavailability excreted amount after oral administration was compared with that after intravenous administration. The urine samples were analyzed for the parent drug with mass-selective or nitrogen phosphorous-detection gas chromatography. The results presented in Table 5 show increased bioavailability of the bisphosphonate prodrugs compared with that of the parent compound.

Data set [6] relates to PTH-induced bone resorption in mouse calvaria. The data set can be described thus: Inhibition of PTH-induced bone resorption in mouse calvaria in vitro. Type of data set: cell-based. The following applies: 72 h, 100 μmol/l, PTH 10 nM, cultured for three days, read-out: Inhibition of resorption 100 (PTH-x)/PTH. How it is done: Newborn mice were labeled by a subcutaneous injection of ^45 Ca four days prior to sacrifice. Calvarial bone fragments were microdissected from the parietal bones, preincubated in culture medium with indomethacin, washed and then cultured for three days with and without a bisphosphonate prodrug. Bone resorption was stimulated by parathyroid hormone (PTH, 10 nM), and the effect on this stimulated resorption was measured. As presented in Table 4, an inhibition of resorption by the compounds was shown. The inhibition by the bisphosphonate prodrugs was even higher than with the parent drug.

[7] abbreviates: pH 2.0, read-out: Log P (pH 2.0).
[8] abbreviates: 1-octanol/phosphate buffer, pH 7.4, read-out: Log P (pH 7.4).
[9] abbreviates: μ=0.15, pH 2.0, 37° C., read-out: T1/2 pH 2.0 (converted).
Setting [10] is: μ=0.15, pH 7.4, 37° C., read-out: T1/2 pH 7.4 (converted).
[11] abbreviates: phosphate buffer 50 mM, pH 7.4, room temperature.

Structures are written as SMILES. Where a name gives a salt, the structure may show the parent alone. Read-outs that look alike come from different tables or passages of the source.

For `O=C(OP(=O)(O)C(Cl)(Cl)P(=O)(O)OC(=O)c1ccccc1)c1ccccc1` [Benzoe acid dianhydride (Ex. 7), P,P'-Di(benzoyl)(dichloromethylene)bisphosphonate disodium salt], the logD in data set [1] (setting [7]) was -1.5; in data set [1] (setting [8]), -2.4. For the same compound, in data set [2], the metabolised at 1 min was 91.4 ± 8.6%. The half-life in data set [3] (setting [9]) is 286 h; in data set [3] (setting [10]), 235 h. Besides, the solubility (in general, the concentration that dissolves in the medium under given conditions) at 2 h in data set [4] (setting [11]) stood at 6 mg/mL.
Take `CCCC(=O)OP(=O)(O)C(Cl)(Cl)P(=O)(O)OC(=O)CCC` [Butanoic acid dianhydride (Ex. 7), P,P'-Dibutyroyl(dichloromethylene)bisphosphonate disodium salt]: the logD in data set [1] (setting [7]) is -1.9; in data set [1] (setting [8]) it was -2.4. Further, the metabolised at 1 min in data set [2] was 98 ± 6.9%. For the same compound, in data set [3] (setting [9]), the half-life was 0.8 h. Also, the “T1/2 pH 7.4” value in data set [3] (μ=0.15, pH 7.4, 37° C.) is given as 31.3 h. In addition, the solubility at 2 h in data set [4] (setting [11]) was 172 mg/mL.
With `O=P([O-])([O-])C(Cl)(Cl)P(=O)(O)O.[Na+].[Na+]` [Clodronate, dichloromethylenebisphosphonic acid disodium salt, reference compound], in data set [5], the bioavailability – broadly, the share of a dose that reaches the circulation, judged against a reference dose that is usually intravenous – at 72 h is 2.17%. Further, the inhibition at 100 µM in data set [6] was 43.2%. In addition, the solubility at 2 h in data set [4] (setting [11]) turned out to be 397 mg/mL. Besides, in data set [4] (reason why the distribution coefficient cannot be determined), the “Water-solubility (in words)” value was “extremely water-soluble”.
Regarding `CC(=O)OP(=O)(O)C(Cl)(Cl)P(=O)(O)OC(C)=O` [Compound 1, P,P'-Diacetyl(dichloromethylene)bisphosphonate disodium salt], the logD in data set [1] (setting [7]) is -1.4; in data set [1] (setting [8]), -2.2. For the same compound, the metabolised at 1 min in data set [2] was found to be 102 ± 1.2%. Further, in data set [6], the inhibition at 100 µM is 48.7%. Also, the half-life in data set [3] (setting [9]) was 0.7 h. Further, the “T1/2 pH 7.4” value in data set [3] (μ=0.15, pH 7.4, 37° C.) came to 15.2 h. The compound also had a solubility at 2 h in data set [4] (setting [11]) of 190 mg/mL.
For `CC(C)C(=O)OP(=O)(O)C(Cl)(Cl)P(=O)(O)OC(=O)C(C)C` [Compound 2, P,P-di(isobutyroyl)(dichloromethylene)bisphosphonate disodium salt], the inhibition at 100 µM in data set [6] was determined as 64.8%.
For the compound `CCCCCCCCCCCCCC(=O)OP(=O)(O)C(Cl)(Cl)P(=O)(O)OC(=O)CCCCCCCCCCCCC` [Compound 3, P,P'-di(tetradecanoyl)(dichoromethylene)bisphosphonate disodium salt], the inhibition at 100 µM in data set [6] came out at 50.5%.
On to `CCCCCCCCCCCCCCCCCC(=O)OP(=O)(O)C(Cl)(Cl)P(=O)(O)OC(=O)CCCCCCCCCCCCCCCCC` [Compound 4, P,P'-di(octadecanoyl)(dichloromethylene)bisphosphonate disodium salt], for which, in data set [6], the inhibition at 100 µM came to 53.9%.
In the case of `CC(C)(C)C(=O)OP(=O)(O)C(Cl)(Cl)P(=O)(O)OC(=O)C(C)(C)C` [Pivalyl acid dianhydride (Ex. 7), P,P'-Di(pivaloyl)(dichloromethylene)bisphosphonate disodium salt], the logD in data set [1] (setting [7]) is -2; in data set [1] (setting [8]), -2.3. Also, in data set [2], the “T1/2 Plasma” value is 3.3 ± 0.6 h. In addition, the half-life in data set [3] (setting [10]) was 790 h. For the same compound, the “T1/2 pH 2.0” value in data set [3] (μ=0.15, pH 2.0, 37° C.) stood at 8.6 h. Besides, the Water-solubility in data set [4] (phosphate buffer 50 mM, pH 7.4, room temperature, 120 min) is given as 23,5 mg/ml.
